# Bridge positions count the residues as written; N and C are the ends. Ends that are not written are not given here.
# Assays:
# [1] = test system: vancomycin-resistant E. faecium; assay type: cell-based, Enterococcus faecium; settings: for reduction of E. faecium counts, antibiotic combined with the three peptides: combination with Enterocin A, Enterocin P, Hiracin JM79; for synergy of the AMPs with the antibiotic: antibiotic combined with supernatant containing the three AMPs, data not shown; for activity of antibiotic alone against E. faecium: clinically relevant concentrations: 50 μg/mL streptomycin, 100 μg/mL ampicillin, 30 μg/mL rifampicin
# Protocol: L. lactis containing pNZCA3 was grown overnight in BHI. Cells were then re-inoculated in fresh BHI at an OD600 of 0.07-0.1. Because BHI contains ˜0.15 M NaCl, no additional salt was added for induction. Cells were then grown ˜6 hours then cell-free culture supernatant was obtained by centrifugation of culture at 12,000×g at 4° C. for 10 min, filtered through 0.2 μm pore-size filters (Whatman Int. Ltd., Maidstone, UK), and stored at −20° C. until use.
# E. faecium was grown overnight in BHI at 37° C. and L. lactis-pNZCA3 was grown in BHI at 32° C. E. faecium was then inoculated at an OD600 of ˜0.06 into 5 ml fresh BHI broth, and allowed to grow to an OD600 of ˜0.1. For antibiotic experiments, 50 μg/mL streptomycin (Chem-Implex Int'l Inc., Wood Dale, Ill., U.S.A.), 100 μg/mL ampicillin (Sigma), or 30 μg/mL rifampicin (Gilbert et al., 2013, The Sanford Guide to Antimicrobial Therapy 2013 43 Pocth Edition|Rent 9781930808744|11930808747. Antimicrob. Ther.) were added to the fresh BHI broth. Cultures were then supplemented with 10% of the previously obtained supernatant or 10% of L. lactis-pNZCA3 culture at an OD600 of ˜0.1 (time=0 hours). […] Samples of the cultures were then taken at different times, serial diluted, and plated (10 μL of each dilution) on GM17 plates containing 5 μg/mL rifampicin (GM17-Rif) or 5 μg/mL chloramphenicol (GM17-Cm) and incubated overnight at 37° C. The following day E. faecium or L. lactis colony forming units (CFU) were counted on GM17-Rif and GM17-Cm plates, respectively.
# Data for FIG. 9 represent technical triplicates obtained from one of three individual tests.
# [2] = test system: wild type E. faecium 8E9 and EntA/EntP/HirJM79-resistant mutant of E. faecium 8E9; assay: Agar diffusion assay of pure Enterocin B; assay type: cell-based, Enterococcus faecium; settings: 1 μg and 0.1 μg enterocin B
# Protocol: For the agar diffusion activity assays, liquid brain heart infusion (BHI) agar was inoculated with 0.5 μL of E. faecium overnight culture per mL medium. The inoculated agar was then poured into a petri dish and allowed to solidify. For all L. lactis halos, a colony of L. lactis was touched with a sterile pipette tip then stabbed into the inoculated agar. For purified EntB halos (FIG. 14 only), 1 μL of the appropriate EntB concentration was dropped onto the inoculated agar and allowed to dry completely. Dry plates were then covered and incubated overnight at 37° C. for imaging the following day.
compound,measurement,setting,value
CC[C@H]1OC(=O)[C@H](C)[C@@H](O[C@H]2C[C@@](C)(OC)[C@@H](O)[C@H](C)O2)[C@H](C)[C@@H](O[C@@H]2O[C@H](C)C[C@H](N(C)C)[C@H]2O)[C@](C)(O)C[C@@H](C)C(=O)[C@H](C)[C@@H](O)[C@]1(C)O [erythromycin],"reduction of E. faecium counts, antibiotic combined with the three peptides",[1],did not exhibit similarly impressive reductions
O=C(N[C@H](CO)[C@H](O)c1ccc([N+](=O)[O-])cc1)C(Cl)Cl [chloramphenicol],"reduction of E. faecium counts, antibiotic combined with the three peptides",[1],did not exhibit similarly impressive reductions
"Enterocin B: 53 amino acid bacteriocin of Enterococcus faecium, SEQ ID NO:42, disulfide bridge 23-52, synthesized by Ontores (ENDHRMPNELNRPNNLSKGGAKCGAAIAGGLFGIPKGPLAWAAGLANVYSKCN; disulfide 23-52)","halo size, wild type versus class IIa resistant mutant",[2],similarly sized halos for both the wild type and resistant mutant
[H]/N=C(/N)N[C@H]1[C@H](O)[C@@H](O)[C@H](O[C@@H]2O[C@@H](C)[C@](O)(C=O)[C@H]2O[C@@H]2O[C@@H](CO)[C@H](O)[C@@H](O)[C@@H]2NC)[C@@H](N/C(N)=N\[H])[C@@H]1O [streptomycin],synergy of the AMPs with the antibiotic,[1],minor
same,activity of antibiotic alone against E. faecium,[1],none of these drugs showed significant activity
CC1(C)S[C@@H]2[C@H](NC(=O)[C@H](N)c3ccccc3)C(=O)N2[C@H]1C(=O)O [ampicillin],synergy of the AMPs with the antibiotic,[1],minor
same,activity of antibiotic alone against E. faecium,[1],none of these drugs showed significant activity
same,"reduction of E. faecium counts, antibiotic combined with the three peptides",[1],did not exhibit similarly impressive reductions

# Source: patent US20160279175A1, “METHODS FOR REDUCING DEVELOPMENT OF RESISTANCE TO ANTIBIOTICS” (REGENTS OF THE UNIVERSITY OF MINNESOTA, priority 2015, published 2016)
